The source of these data is article PMC7747700, “Enantiomer-specific activities of an LRH-1 and SF-1 dual agonist” (Scientific Reports, 2020).

The target of one test is T1, H390A-LRH-1 (Homo sapiens, UniProt O00482, H390A).
T1 construct: expressed in transfected cells; host or cells: Hela cells
On the set-up: method as in PMID 27694446. The settings on record: cited from earlier work.

Test [1] addresses T2, Liver receptor homolog-1 (LRH-1) ligand binding domain (UniProt O00482 299-541).
T2 construct: also called LRH-1 LBD
The experiment in a line: crystal structure; LRH-1 LBD (His-tag cleaved) saturated with SS-RJW100, combined with the Tif2 NR Box 3 peptide, 6 mg/ml; hanging drop vapor diffusion at 18 °C with microseeding; 0.05 M sodium acetate pH 4.6, 5–11% PEG4000. To be noted: both partners purified.

T2 sequence (O00482 299-541): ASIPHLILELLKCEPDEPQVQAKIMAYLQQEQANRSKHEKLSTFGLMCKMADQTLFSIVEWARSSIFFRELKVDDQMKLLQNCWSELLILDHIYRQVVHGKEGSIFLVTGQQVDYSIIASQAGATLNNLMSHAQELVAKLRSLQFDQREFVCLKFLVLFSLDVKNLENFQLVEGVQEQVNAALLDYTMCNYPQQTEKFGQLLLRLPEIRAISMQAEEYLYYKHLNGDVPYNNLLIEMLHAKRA
T1 sequence (O00482 whole entry H390A): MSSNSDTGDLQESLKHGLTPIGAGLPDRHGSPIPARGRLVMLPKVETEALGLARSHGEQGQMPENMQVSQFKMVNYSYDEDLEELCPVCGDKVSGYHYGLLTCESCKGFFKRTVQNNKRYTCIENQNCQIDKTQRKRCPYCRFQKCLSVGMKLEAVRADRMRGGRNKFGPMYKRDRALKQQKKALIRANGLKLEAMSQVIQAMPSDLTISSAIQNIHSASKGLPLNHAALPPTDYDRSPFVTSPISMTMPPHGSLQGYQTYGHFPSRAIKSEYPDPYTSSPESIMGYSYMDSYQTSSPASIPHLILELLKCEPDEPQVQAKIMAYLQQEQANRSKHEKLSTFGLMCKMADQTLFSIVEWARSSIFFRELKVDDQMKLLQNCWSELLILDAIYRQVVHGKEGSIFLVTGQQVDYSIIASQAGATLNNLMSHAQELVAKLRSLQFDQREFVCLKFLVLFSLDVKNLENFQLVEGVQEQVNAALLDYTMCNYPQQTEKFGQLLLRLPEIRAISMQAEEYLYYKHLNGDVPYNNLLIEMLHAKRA

On to `CCC/C=C(\CCC)C1=C(c2ccccc2)[C@]2(Nc3ccccc3)CCC[C@@H]2C1` [GSK8470], for which the “activation of H390A-LRH-1” value on H390A-LRH-1 was “cannot activate”.

B1: peptide corresponding to the NR Box 3 of the Tif2 coactivator (peptide)
peptide: KENALLRYLLDKDDT
notes: source: synthetic peptide (RS Synthesis)
On to B1, for which, in test [1], the binding result is “binds”.
